Assay results: patent US20070270312A1, “Heteroaroyl-Substituted Serineamides” (priority 2004, published 2007)

Tests used:
Amaranthus retroflexus = assay: greenhouse post-emergence herbicidal test, pig weed; format: in vivo; details: 2 to 4 weeks; for post-emergence action against pig weed: application rate 1.0 kg/ha a.s.; for post-emergence control of pig weed: application rate 0.5 kg/ha a.s.
From the text: (§1) The seeds of the test plants were sown separately for each species. For the post-emergence treatment, the test plants were first grown to a height of 3 to 15 cm, depending on the plant habit, and only then treated with the active ingredients which had been suspended or emulsified in water. For this purpose, the test plants were either sown directly and grown in the same containers, or they were first grown separately as seedlings and transplanted into the test containers a few days prior to treatment. The rate of application for the post-emergence treatment was 1.0 or 0.5 kg/ha of a.s. (active substance). Depending on the species, the plants were kept at 10-25° C. or 20-35° C. The test period extended over 2 to 4 weeks. During this time, the plants were tended, and their response to the individual treatments was evaluated. Evaluation was carried out using a scale from 0 to 100.100 means no emergence of the plants, or complete destruction of at least the aerial parts, and 0 means no damage, or normal course of growth. The plants used in the greenhouse experiments belonged to the following species: [table]

Chenopodium album = assay: greenhouse post-emergence herbicidal test, lambsquarters; format: in vivo; details: 2 to 4 weeks; for post-emergence action against lambsquarters: application rate 1.0 kg/ha a.s.; for post-emergence control of lambsquarters: application rate 0.5 kg/ha a.s.
From the text: as §1

Setaria viridis = assay: greenhouse post-emergence herbicidal test, green foxtail; format: in vivo; details: 2 to 4 weeks; for post-emergence action against green foxtail: application rate 1.0 kg/ha a.s.; for post-emergence control of green foxtail: application rate 0.5 kg/ha a.s.
From the text: as §1

For `CNC(=O)C(NC(=O)c1cn(C)nc1C(F)(F)F)C(O)c1cccs1` (mixture of isomers) [Compound 3.5], the “post-emergence action against pig weed” value (Amaranthus retroflexus) was “very good”, the “post-emergence action against lambsquarters” value (Chenopodium album) was “very good” and the “post-emergence action against green foxtail” value (Setaria viridis) was “very good”.
For `CNC(=O)C(NC(=O)c1cn(C)nc1C(F)(F)F)C(OC(=O)N(C)C)c1cccs1` (mixture of isomers) [Compound 3.6], the “post-emergence control of pig weed” value (Amaranthus retroflexus) was “very good”, the “post-emergence control of lambsquarters” value (Chenopodium album) was “very good” and the “post-emergence control of green foxtail” value (Setaria viridis) was “very good”.
In the case of `CNC(=O)C(NC(=O)c1cn(C)nc1C(F)(F)F)C(O)c1ccn[nH]1` (mixture of isomers) [Compound 3.17], the “post-emergence action against pig weed” value (Amaranthus retroflexus) was “very good”, the “post-emergence action against lambsquarters” value (Chenopodium album) was “very good” and the “post-emergence action against green foxtail” value (Setaria viridis) was “very good”.
In the case of `CNC(=O)C(NC(=O)c1cn(C)nc1C(F)(F)F)C(OC(C)=O)c1ccn[nH]1` (mixture of isomers) [Compound 3.19], the “post-emergence control of pig weed” value (Amaranthus retroflexus) was “very good”, the “post-emergence control of lambsquarters” value (Chenopodium album) was “very good” and the “post-emergence control of green foxtail” value (Setaria viridis) was “very good”.
In the case of `CNC(=O)C(NC(=O)c1cn(C)nc1C(F)(F)F)C(O)c1nccs1` (mixture of isomers) [Compound 3.51], the “post-emergence action against pig weed” value (Amaranthus retroflexus) was “very good”, the “post-emergence action against lambsquarters” value (Chenopodium album) was “very good” and the “post-emergence action against green foxtail” value (Setaria viridis) was “very good”.
For `CNC(=O)C(NC(=O)c1cn(C)nc1C(F)(F)F)C(O)c1nccs1` (mixture of isomers) [Compound 3.52], the “post-emergence action against pig weed” value (Amaranthus retroflexus) was “very good”, the “post-emergence action against lambsquarters” value (Chenopodium album) was “very good” and the “post-emergence action against green foxtail” value (Setaria viridis) was “very good”.
With `CNC(=O)C(NC(=O)c1cn(C)nc1C(F)(F)F)C(OC(C)=O)c1nccs1` (mixture of isomers) [Compound 3.54] the “post-emergence control of pig weed” value (Amaranthus retroflexus) was “very good”, the “post-emergence control of lambsquarters” value (Chenopodium album) was “very good” and the “post-emergence control of green foxtail” value (Setaria viridis) was “very good”.
With `CNC(=O)C(NC(=O)c1cn(C)nc1C(F)(F)F)C(OC(=O)N(C)C)c1nccs1` (mixture of isomers) [Compound 3.57] the “post-emergence action against pig weed” value (Amaranthus retroflexus) was “very good”, the “post-emergence action against lambsquarters” value (Chenopodium album) was “very good” and the “post-emergence action against green foxtail” value (Setaria viridis) was “very good”.
In the case of `CNC(=O)C(NC(=O)c1cn(C)nc1C(F)(F)F)C(OC(=O)N(C)C)c1nccs1` (mixture of isomers) [Compound 3.59], the “post-emergence action against pig weed” value (Amaranthus retroflexus) was “very good”, the “post-emergence action against lambsquarters” value (Chenopodium album) was “very good” and the “post-emergence action against green foxtail” value (Setaria viridis) was “very good”.
With `CNC(=O)C(NC(=O)c1cn(C)nc1C(F)(F)F)C(O)c1ccccn1` (racemic) [Compound 3.1] the “post-emergence action against pig weed” value (Amaranthus retroflexus) was “very good”, the “post-emergence action against lambsquarters” value (Chenopodium album) was “very good” and the “post-emergence action against green foxtail” value (Setaria viridis) was “very good”.
With `CNC(=O)C(NC(=O)c1cn(C)nc1C(F)(F)F)C(O)c1cccc(C)n1` (racemic) [Compound 3.2] the “post-emergence control of pig weed” value (Amaranthus retroflexus) was “very good”, the “post-emergence control of lambsquarters” value (Chenopodium album) was “very good” and the “post-emergence control of green foxtail” value (Setaria viridis) was “very good”.
Compound `CNC(=O)C(NC(=O)c1cscc1C(F)(F)F)C(O)c1cnc2ccccc2c1` (racemic) [Compound 3.15, rac-erythro-N-(2-hydroxy-1-methylcarbamoyl-2-quinolin-3-ylethyl)-4-trifluoromethyl-thiophene-3-carboxamide] has a melting point of 206 °C.
For `CNC(=O)C(NC(=O)c1cn(C)nc1C(F)(F)F)C(O)c1ccn(C)n1` (racemic) [Compound 3.33], the “post-emergence action against pig weed” value (Amaranthus retroflexus) was “very good”, the “post-emergence action against lambsquarters” value (Chenopodium album) was “very good” and the “post-emergence action against green foxtail” value (Setaria viridis) was “very good”.
